Experimental data published in patent US5254577A, “Aminomethyloxooxazolidinyl arylbenzene derivatives useful as antibacterial agents” (The Du Pont Merck Pharmaceutical Company, priority 1992, dated 1993).
In brackets after ≈: the same amount, converted by molar mass. Structures can show the parent of a compound that is named as a salt. Where two headings read alike, the source gives them in different places.

Assays:
[1] = test system: Escherichia coli; assay: In vitro broth microdilution, 24-hour minimal inhibitory concentration (MIC); assay type: cell-based; conditions: Mueller-Hinton broth, read-out: Minimum Inhibitory Concentration
From the text: (§1) A standard microdilution method (National Committee for Clinical Standards. Tentative standard M7-T. Standard methods for dilution antimicrobial susceptibility tests for bacteria that grow aerobically. National Committee for Clinical Laboratory Standards, Villanova, Pa. 1982) with Mueller-Hinton broth is used to determine the 24-hour minimal inhibitory concentrations (MIC's) for test strains of Staphylococcus aureus and Escherichia coli.

[2] = test system: Staphylococcus aureus; assay: as above; assay type: cell-based; conditions: Mueller-Hinton broth; for MIC: read-out: Minimum Inhibitory Concentration
From the text: as §1

[3] = test system: Staphylococcus aureus; assay: In vivo activity against Staphylococcus aureus in an acute lethal mouse model; conditions: mice infected intraperitoneally, dosed 1 h and 4 h post-infection, survivors on seventh day
Procedure: The in vivo potency of these compounds is exemplified by the data summarized in Table X. Determinations of in vivo efficacy are performed by inoculating mice intraperitoneally with cultures of the infecting organism diluted to produce 100% mortality in control animals within twenty-four hours. The culture of S. aureus used to infect the animals was diluted to the required bacterial density using 5% aqueous hog gastric mucin. The compounds are dissolved or suspended in 0.25% aqueous Methocel® (Methocel®: Hydroxypropyl Methylcullulose, E15 Premium, Dow Chemical Company) for oral administration or sterile distilled water containing 5% dimethylsulfoxide (Fisher Scientific Company, Fairlawn, N.J.) for subcutaneous administration. The mice are dosed at one hour and at four hours post-infection. Mortality is recorded daily until test determination seven days post infection. The number of survivors in each treatment group on the seventh day after infection is used in the calculation of the ED50, the dose of compound that protects 50% of the mice (Litchfield,J. T. and Wildoxon. A simulated method for evaluating dose-effect experiments. J. Pharmacol Exp. Ther., 98:99-113, 1949).

[4] = Staphylococcus aureus, 168 h, Oral Administration, read-out: ED50
[5] = Staphylococcus aureus, sc, 168 h, Subcutaneous Administration, read-out: ED50

Row | Compound | MIC [1] [µg/mL] | MIC [2] [µg/mL] | ED50 [3, 4] [mg/kg] | ED50 [3, 5] [mg/kg] | Minimum Inhibitory Concentration [2] [µg/mL] | ED50 ([3]; Subcutaneous Administration, 10080 min) [mg/kg]
1 | CC(=O)NC[C@H]1CN(c2ccc(-c3ccc(C(C)NN4CCN(C)CC4)cc3)cc2)C(=O)O1 (single isomer, unassigned) [Example 26, (l)-N-[3-(4-(4'-(1-(4-Methylpiperazinylamino)ethyl))phenyl)phenyl-2-oxooxazolidin-5-ylmethyl]acetamide] | > 128 | 1 (≈ 2.21 µM) | – | – | – | –
2 | CC(=O)NC[C@H]1CN(c2ccc(-c3ccc(C(C)O)cc3)cc2)C(=O)O1 (single isomer, unassigned) [Example 27, (l)-N-[3-(4-(4'-(1-Hydroxyethyl)phenyl)phenyl)-2-oxooxazolidin-5-ylmethyl]acetamide] | > 128 | 0.5 (≈ 1.41 µM) | 6.6 | 7.6 | – | –
3 | CC(=O)NC[C@H]1CN(c2ccc(-c3ccc(C(O)CCN(C)C)cc3)cc2)C(=O)O1 (single isomer, unassigned) [Example 58, (l)-N-[3-(4-(4'-(3-N,N-Dimethylamino-1-hydroxypropyl)phenyl)phenyl)-2-oxooxazolidin-5-ylmethyl]acetamide] | > 128 | 1 (≈ 2.43 µM) | 13.8 | 2 | – | –
4 | CC(=O)NC[C@H]1CN(c2ccc(-c3ccc(C(O)CCN4CCOCC4)cc3)cc2)C(=O)O1 (single isomer, unassigned) [Example 59, (l)-N-[3-(4-(4'-(1-hydroxy-3-(4-morpholinyl)propyl)phenyl)phenyl)-2-oxooxazolidin-5-ylmethyl]acetamide] | > 128 | 2 (≈ 4.41 µM) | 7 | 2.7 | – | –
5 | CC(=O)NC[C@H]1CN(c2ccc(-c3cccc([S+](C)[O-])c3)cc2)C(=O)O1 (single isomer, unassigned) [Example 65] | > 128 | 2 (≈ 5.37 µM) | – | 4.3 | – | –
6 | CC(=O)NC[C@H]1CN(c2ccc(-c3ccc([S+](C)[O-])cc3)cc2)C(=O)O1 (single isomer, unassigned) [Example 68, (l)-N-[3-(4-(4'-methylsulfinylphenyl)phenyl)-2-oxooxazolidin-5-ylmethyl]acetamide] | > 128 | 0.25 (≈ 0.671 µM) | 2.2 | 0.7 | – | –
7 | CC(=O)NC[C@H]1CN(c2ccc(-c3ccccc3)cc2)C(=O)O1 [Example 3, (l)-N-[3-(4-Phenylphenyl)-2-oxooxazolidin-5-ylmethyl]acetamide] | > 128 | 0.5 (≈ 1.61 µM) | 2.9 | 2 | – | –
8 | CC(=O)NC[C@H]1CN(c2ccc(-c3ccc(C(C)=O)cc3)cc2)C(=O)O1 [Example 4, (l)-N-[3-(4-(4'-Acetylphenyl)phenyl)-2-oxooxazolidin-5-ylmethyl]acetamide] | > 128 | 0.5 (≈ 1.42 µM) | 22 | 39.7 | – | –
9 | CCC(=O)c1ccc(-c2ccc(N3C[C@H](CNC(C)=O)OC3=O)cc2)cc1 [Example 7] | > 128 | 2 (≈ 5.46 µM) | – | 90 | – | –
10 | CC(=O)NC[C@H]1CN(c2ccc(-c3ccc(C(=O)CCl)cc3)cc2)C(=O)O1 [Example 8] | > 128 | < 0.13 | > 90 | > 90 | – | –
11 | CC(=O)NC[C@H]1CN(c2ccc(-c3ccc(C(=O)CCC(=O)O)cc3)cc2)C(=O)O1 [Example 9] | > 128 | < 0.13 | > 90 | 16.8 | – | –
12 | CC(=O)NC[C@H]1CN(c2ccc(-c3ccc(C(=O)CC(C)(C)C(=O)O)cc3)cc2)C(=O)O1 [Example 10] | > 128 | 0.5 (≈ 1.14 µM) | – | – | – | –
13 | CC(=O)NC[C@H]1CN(c2ccc(-c3ccc(I)cc3)cc2)C(=O)O1 [Example 20, (l)-N-[3-(4-(4'-Iodophenyl)phenyl)-2-oxooxazolidin-5-ylmethyl]acetamide] | > 128 | 8 (≈ 18.3 µM) | > 90 | > 90 | – | –
14 | CC(=O)NC[C@H]1CN(c2ccc(-c3ccc(C=O)cc3)cc2)C(=O)O1 [Example 21, (l)-N-[3-(4-(4'-Formylphenyl)phenyl)-2-oxooxazolidin-5-ylmethyl]acetamide] | > 128 | < 0.13 | 44.7 | > 90 | – | –
15 | CC(=O)NC[C@H]1CN(c2ccc(-c3ccc(C(C)=NO)cc3)cc2)C(=O)O1 [Example 22, (l)-N-[3-(4-(4'-(1-Hydroxyiminoethyl)phenyl)phenyl)-2-oxooxazolidin-5-ylmethyl]acetamide] | > 128 | 0.25 (≈ 0.68 µM) | > 90 | > 90 | – | –
16 | CC(=O)NC[C@H]1CN(c2ccc(-c3ccc(C(C)=NOC(=O)CCC(=O)O)cc3)cc2)C(=O)O1 [Example 23, Sodium Salt of Succinate Hemiester of (l)-N-[3-(4-(4'-(1-Hydroxyiminoethyl)phenyl)phenyl)-2-oxooxazolidin-5-ylmethyl]acetamide] | > 128 | 1 | 17.3 | 24.3 | – | –
17 | CC(=O)NC[C@H]1CN(c2ccc(-c3ccc(C(C)=NOCC(=O)O)cc3)cc2)C(=O)O1 [Example 24, (l)-N-[3-(4-(4'-(1-Carboxymethoxyliminoethyl)phenyl)phenyl)-2-oxooxazolidin-5-ylmethyl]acetamide] | > 128 | 8 (≈ 18.8 µM) | > 90 | > 90 | – | –

Row | Compound | MIC [1] [µg/mL] | MIC [2] [µg/mL] | ED50 [3, 4] [mg/kg] | ED50 [3, 5] [mg/kg] | Minimum Inhibitory Concentration [2] [µg/mL] | ED50 ([3]; Subcutaneous Administration, 10080 min) [mg/kg]
18 | CC(=O)NC[C@H]1CN(c2ccc(-c3ccc(C(C)=NN4CCN(C)CC4)cc3)cc2)C(=O)O1 [Example 25, (l)-N-[3-(4-(4'-Acetylphenyl)phenyl)-2-oxooxazolidin-5-ylmethyl]acetamide 4-Methylpiperazinylhydrazone] | > 128 | 2 (≈ 4.45 µM) | 13.9 | 5.8 | – | –
19 | CC(=O)NC[C@H]1CN(c2ccc(-c3ccc(CO)cc3)cc2)C(=O)O1 [Example 28] | > 128 | < 0.13 | 52.6 | 30 | – | –
20 | CC(=O)NC[C@H]1CN(c2ccc(-c3ccc(C(C)OC(=O)CCC(=O)O)cc3)cc2)C(=O)O1 (some centres unmarked) [Example 29] | > 128 | 4 (≈ 8.8 µM) | 16.1 | 9.8 | – | –
21 | CC(=O)NC[C@H]1CN(c2ccc(-c3ccc(C(C)OC(=O)CCC(=O)O)cc3)cc2)C(=O)O1 (some centres unmarked) [Example 30] | – | – | – | – | 4 | 9.8
22 | CC(=O)NC[C@H]1CN(c2ccc(-c3ccc(C#N)cc3)cc2)C(=O)O1 [Example 37, (l)-N-[3-(4-(4'-Cyanophenyl)phenyl)-2-oxooxazolidin-5-ylmethyl]acetamide] | > 128 | 0.25 (≈ 0.745 µM) | < 1.2 | 0.6 | – | –
23 | CC(=O)NC[C@H]1CN(c2ccc(-c3ccc(-c4nn[nH]n4)cc3)cc2)C(=O)O1 [Example 38, (l)-N-[3-(4-(4'-(5-Tetrazolyl)phenyl)phenyl)-2-oxooxazolidin-5-ylmethyl]acetamide] | > 128 | 64 (≈ 169 µM) | – | > 90 | – | –
24 | CCN(CC)Cc1ccc(-c2ccc(N3C[C@H](CNC(C)=O)OC3=O)cc2)cc1 [Example 43, (l)-N-[3-(4-(4'-diethylaminomethylphenyl)phenyl)-2-oxooxazolidin-5-ylmethyl]acetamide] | > 128 | 4 (≈ 10.1 µM) | 6.4 | 3.7 | – | –
25 | CCCN(CCC)Cc1ccc(-c2ccc(N3C[C@H](CNC(C)=O)OC3=O)cc2)cc1 [Example 44, (l)-N-[3-(4-(4'-di-n-propylaminomethylphenyl)phenyl)-2-oxooxazolidin-5-ylmethyl]acetamide] | > 128 | 4 (≈ 9.44 µM) | 8.6 | 3.7 | – | –
26 | CCCCNCc1ccc(-c2ccc(N3C[C@H](CNC(C)=O)OC3=O)cc2)cc1 [Example 45] | > 128 | 0.5 (≈ 1.26 µM) | – | 13.9 | – | –
27 | CCCCN(CCCC)Cc1ccc(-c2ccc(N3C[C@H](CNC(C)=O)OC3=O)cc2)cc1 [Example 46] | > 128 | 4 (≈ 8.86 µM) | – | 30 | – | –
28 | CCCCCN(CCCCC)Cc1ccc(-c2ccc(N3C[C@H](CNC(C)=O)OC3=O)cc2)cc1 [Example 47] | > 128 | 0.5 (≈ 1.04 µM) | – | – | – | –
29 | CCCCCCCCN=Cc1ccc(-c2ccc(N3C[C@H](CNC(C)=O)OC3=O)cc2)cc1 [Example 48] | > 128 | < 0.13 | – | – | – | –
30 | CCCCCCCCNCc1ccc(-c2ccc(N3C[C@H](CNC(C)=O)OC3=O)cc2)cc1 [Example 49] | > 128 | 1 (≈ 2.21 µM) | 65.2 | > 90 | – | –
31 | CC(=O)NC[C@H]1CN(c2ccc(-c3ccc(OCCN(C)C)cc3)cc2)C(=O)O1 [Example 66, (l)-N-[3-(4-(4'-N,N-Dimethylaminoethyloxyphenyl)phenyl)-2-oxooxazolidin-5-ylmethyl]acetamide] | > 128 | 0.5 (≈ 1.26 µM) | – | – | – | –
32 | COc1ccc(-c2ccc(N3C[C@H](CNC(C)=O)OC3=O)cc2)cc1 [Example 75] | > 128 | < 0.13 | – | – | – | –
33 | CC(=O)NC[C@H]1CN(c2ccc(-c3cncc4ccccc34)cc2)C(=O)O1 [Example 92] | > 128 | 2 (≈ 5.53 µM) | – | – | – | –
34 | CC(=O)NCC1CN(c2ccc(-c3ccc(N(C)C)cc3)cc2)C(=O)O1 (centres unmarked) [Example 115] | > 128 | 16 (≈ 45.3 µM) | – | – | – | –
